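Growth conditions: 96-well plates. Treatment: test compound, 48 hours, 5 concentrations. Analysis: linear interpolation between bracketing concentrations; unreached endpoints set to highest concentration. GI50 = concentration required for 50% inhibition of growth. At the TGI there is no net growth.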 Where a SMILES comes first, the peptide text is derived from it. [ ]: non-standard residue; d: D form. The star is where a group is joined. Nle = CCCC[C@H](N)C(=O)O; Cbz = O=C(OCc1ccccc1)*
Columns and labels:
Assay in all cases: inhibition of tumour cell growth, NCI panel, 48 h
[1] = test system: UACC-257 melanoma
[2] = test system: SK-MEL-28 melanoma
[3] = test system: NCI-H460 lung
[4] = test system: A498 renal
[5] = test system: HOP-62 NSCLC
[6] = test system: SR leukemia
[7] = test system: NCI-H226 lung
[8] = test system: SK-MEL-5 melanoma
[9] = test system: NCI-H522 lung
[10] = test system: HCC-2998 colon
[11] = test system: MCF7 breast
[12] = test system: MDA-MB-435
[13] = test system: SK-MEL-2 melanoma
[14] = test system: DU-145 prostate
[15] = test system: HL-60(TB) leukemia
[16] = test system: MALME-3M melanoma
[17] = test system: SF-539 CNS
[18] = test system: OVCAR-8 ovarian
[19] = test system: SF-295 CNS
[20] = test system: M14 melanoma
[21] = test system: SNB-19 CNS
[22] = test system: NCI/ADR-RES ovarian
[23] = test system: T-47D breast
[24] = test system: HOP-92 NSCLC
[25] = test system: TK-10 renal
[26] = test system: PC-3 prostate
[27] = test system: SK-OV-3 ovarian
[28] = test system: UO-31 renal
[29] = test system: HCT-116 colon
[30] = test system: NCI-H23 lung
[31] = test system: EKVX NSCLC
[32] = test system: CAKI-1 renal
[33] = test system: MDA-MB-231 breast
[34] = test system: HT29 colon
[35] = test system: HS 578T breast
[36] = test system: COLO 205 colon
[37] = test system: K-562 leukemia
[38] = test system: OVCAR-4 ovarian
[39] = test system: U251 CNS
[40] = test system: CCRF-CEM leukemia
[41] = test system: BT-549 breast
[42] = test system: IGROV1 ovarian
[43] = test system: MOLT-4 leukemia
[44] = test system: RPMI-8226 leukemia
[45] = test system: UACC-62 melanoma
[46] = test system: OVCAR-5 ovarian
[47] = test system: LOX IMVI melanoma
[48] = test system: 786-0 renal
[49] = test system: ACHN renal
[50] = test system: RXF 393 renal
[51] = test system: KM12 colon
[52] = test system: A549 NSCLC
[53] = test system: OVCAR-3 ovarian
[54] = test system: SW-620 colon
[55] = test system: HCT-15 colon
[56] = test system: SF-268 CNS

Structure (SMILES): CCCC[C@@H](C=O)NC(=O)[C@H](CC(C)C)NC(=O)[C@H](CC(C)C)NC(=O)OCc1ccccc1 (Cbz-Leu-Leu-[Nle]-aldehyde)
- GI50 [1]: 395 nM
- TGI [1]: 1960 nM
- GI50 [2]: 430 nM
- TGI [2]: 1610 nM
- GI50 [3]: 1570 nM
- TGI [3]: 6280 nM
- GI50 [4]: 305 nM
- TGI [4]: 964 nM
- GI50 [5]: 415 nM
- TGI [5]: 1550 nM
- GI50 [6]: 279 nM
- TGI [6]: 1360 nM
- GI50 [7]: 175 nM
- TGI [7]: 343 nM
- GI50 [8]: 432 nM
- TGI [8]: 1880 nM
- GI50 [9]: 662 nM
- TGI [9]: 5820 nM
- GI50 [10]: 593 nM
- TGI [10]: 1960 nM
- GI50 [11]: 546 nM
- TGI [11]: 20700 nM
- GI50 [12]: 212 nM
- TGI [12]: 469 nM
- GI50 [13]: 791 nM
- TGI [13]: 2840 nM
- GI50 [14]: 617 nM
- TGI [14]: 2460 nM
- GI50 [15]: 1010 nM
- TGI [15]: > 100000 nM
- GI50 [16]: 570 nM
- TGI [16]: 4870 nM
- GI50 [17]: 268 nM
- TGI [17]: 2530 nM
- GI50 [18]: 1410 nM
- TGI [18]: > 37500 nM
- GI50 [19]: 486 nM
- TGI [19]: 5710 nM
- GI50 [20]: 244 nM
- TGI [20]: 603 nM
- GI50 [21]: 5370 nM
- TGI [21]: > 21200 nM
- GI50 [22]: 3960 nM
- TGI [22]: > 32600 nM
- GI50 [23]: 688 nM
- GI50 [24]: 2090 nM
- TGI [24]: 6220 nM
- GI50 [25]: 332 nM
- GI50 [26]: 2370 nM
- TGI [26]: > 21100 nM
- GI50 [27]: 1310 nM
- TGI [27]: > 71500 nM
- GI50 [28]: 398 nM
- TGI [28]: 1670 nM
- GI50 [29]: 173 nM
- TGI [29]: 349 nM
- GI50 [30]: 380 nM
- TGI [30]: 1770 nM
- GI50 [31]: 1060 nM
- TGI [31]: > 59000 nM
- GI50 [32]: 441 nM
- TGI [32]: 2150 nM
- GI50 [33]: 444 nM
- TGI [33]: 1910 nM
- GI50 [34]: 349 nM
- TGI [34]: > 34000 nM
- GI50 [35]: 308 nM
- TGI [35]: 4180 nM
- GI50 [36]: 979 nM
- TGI [36]: 6200 nM
- GI50 [37]: 988 nM
- TGI [37]: > 100000 nM
- GI50 [38]: 1070 nM
- TGI [38]: > 81000 nM
- GI50 [39]: 570 nM
- TGI [39]: 2120 nM
- GI50 [40]: 440 nM
- TGI [40]: > 100000 nM
- GI50 [41]: 409 nM
- TGI [41]: 2590 nM
- GI50 [42]: 308 nM
- TGI [42]: 4390 nM
- GI50 [43]: 517 nM
- TGI [43]: > 100000 nM
- GI50 [44]: 359 nM
- GI50 [45]: 403 nM
- TGI [45]: 1510 nM
- GI50 [46]: 930 nM
- TGI [46]: 2840 nM
- GI50 [47]: 226 nM
- TGI [47]: 537 nM
- GI50 [48]: 243 nM
- TGI [48]: 1410 nM
- GI50 [49]: 366 nM
- TGI [49]: 2430 nM
- GI50 [50]: 144 nM
- TGI [50]: 316 nM
- GI50 [51]: 504 nM
- GI50 [52]: 663 nM
- TGI [52]: 12200 nM
- GI50 [53]: 361 nM
- TGI [53]: 4660 nM
- GI50 [54]: 298 nM
- TGI [54]: 2500 nM
- GI50 [55]: 1270 nM
- TGI [55]: 4940 nM
- GI50 [56]: 406 nM
- TGI [56]: 4170 nM

— PubChem BioAssay (NCI)
